Non-standard residues stand in square brackets, D forms with d. *: point of attachment. O(CH2CH2O)3CH2C(O) = O=C(COCCOCCOCCO)*; AEEEA = NCCOCCOCCOCC(=O)O; Carbamoyl = NC(=O)*; Cy5 = Cy5 label
Key:
Format in all cases: cell-based
[1] = system: human monocyte-derived dendritic cells; assay: Activation of human dendritic cells (IL-12 cytokine secretion by ELISA); conditions: human DCs stimulated with titrated amounts of compound; IL-12 by ELISA; FIG. 2B/3B
Text: One representative from three independent experiments is shown (error bars represent SD);
DCs were stimulated with titrated amounts of test compounds or controls. Supernatants were harvested and analyzed for IL-12 cytokine secretion by ELISA as in FIG. 2B;

[2] = biological target: T1, human TLR2 (Homo sapiens, UniProt O60603); assay: HEK293-TLR2 activation assay (IL-8 production); conditions: for activation of TLR2 HEK cells (human IL-8 production via TLR-2): HEK TLR-2 cells incubated with titrated amounts of compound, IL-8 in supernatant by ELISA, FIG. 2A/3A; for TLR2-mediated bio-activity compared to reference ligands: compared to compound 1 and 5 and chirally pure Pam3CSK4 (Pam-R), HEK TLR2 cells and human DC, FIG. 2
T1 construct: host or cells: HEK293
T1 sequence (O60603 21-784): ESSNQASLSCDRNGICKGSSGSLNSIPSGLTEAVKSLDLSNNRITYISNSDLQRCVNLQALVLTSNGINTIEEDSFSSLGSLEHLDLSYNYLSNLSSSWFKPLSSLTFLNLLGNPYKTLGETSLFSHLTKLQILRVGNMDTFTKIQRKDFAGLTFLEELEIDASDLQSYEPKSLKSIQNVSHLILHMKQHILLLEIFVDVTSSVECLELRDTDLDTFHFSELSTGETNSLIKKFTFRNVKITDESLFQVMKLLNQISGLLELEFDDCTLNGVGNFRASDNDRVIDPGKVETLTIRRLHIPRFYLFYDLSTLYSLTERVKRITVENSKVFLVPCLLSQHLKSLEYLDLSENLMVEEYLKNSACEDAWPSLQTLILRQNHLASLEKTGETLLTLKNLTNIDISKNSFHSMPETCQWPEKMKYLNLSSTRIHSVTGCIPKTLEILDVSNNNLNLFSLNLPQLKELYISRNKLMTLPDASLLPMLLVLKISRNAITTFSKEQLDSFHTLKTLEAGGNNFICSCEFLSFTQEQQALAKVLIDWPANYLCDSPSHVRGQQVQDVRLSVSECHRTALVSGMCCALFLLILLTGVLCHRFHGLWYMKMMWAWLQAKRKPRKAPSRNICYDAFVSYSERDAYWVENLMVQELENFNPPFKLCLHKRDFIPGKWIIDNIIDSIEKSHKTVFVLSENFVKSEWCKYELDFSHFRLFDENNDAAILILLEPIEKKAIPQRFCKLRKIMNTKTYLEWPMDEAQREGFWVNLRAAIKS
Procedure: (a) HEK TLR-2 cells were incubated with titrated amounts of test compounds or controls for 24 h;
The HEK-TLR2 reporter cell line and HEK293 cells stably transfected with human TLR2 were obtained from Invivogen, Toulouse, France. HEK-TLR2 cells were cultured in complete IMDM medium, supplemented with 500 μg/mL Geneticin. Test compounds were titrated in a flat-bottom 96-well plate (Corning, Amsterdam, The Netherlands) in complete IMDM medium to which 20 000 HEK-TLR2 cells per well were added. After 48 h of incubation at 37° C., the supernatant was taken from the wells for ELISA analysis (BioLegend, San Diego, CA) to determine the amount of IL-8 that was produced as a measure for TLR2-mediated activation.

[3] = system: mouse D1-cells; assay: Uptake by mouse D1-cells (confocal laser scanning microscopy); conditions: 1 μM, 15 min incubation; Cy5-labeled conjugate; endo-lysosomal compartments; FIG. 4B
Procedure: The cells were incubated for 15 min with compound 10 (1 μM). The uptake and localization of the compounds were analyzed with confocal laser scanning microscopy. The images are representative for multiple cells in at least 3 experiments.

[4] = system: human moDC; assay: Uptake by human moDC (confocal laser scanning microscopy); conditions: 1 μM, 15 min incubation; Cy5-labeled conjugate; endo-lysosomal compartments; FIG. 4A
Procedure: The cells were incubated for 15 min with compound 10 (1 μM). The uptake and localization of the compounds were analyzed with confocal laser scanning microscopy. The images are representative for multiple cells in at least 3 experiments; and […]

Molecule | activation of human monocyte-derived dendritic cells (IL-12 secretion) [1] | activation of TLR2 HEK cells (human IL-8 production via TLR-2) [2] | TLR2-mediated bio-activity compared to reference ligands [2] | dendritic cell uptake, murine [3] | dendritic cell uptake, human [4]
CCCCCCCCCCCCCCCC(=O)OCCSCC[C@H](NC(N)=O)C(=O)N[C@@H](CO)C(=O)NCCOCCOCCOCC(=O)O [Compound 7, (14S,17 S)-14-(hydroxymethyl)-13,16,24-trioxo-17-ureido-3,6,9,23-tetraoxa-20-thia-12,15-diazanonatriacontanoic acid] | excellent capacity to activate | excellent capacity to activate | improved | – | –
NH2C(O)NH-Cys(EtOC(O)C15H31)-Ser(OH)—NH(CH2CH2O)3CH2C(O)NH-DEVSGLEQLESIINFEKL-OH ({Carbamoyl-Cys(EtOC(O)C15H31)}-S[AEEEA]DEVSGLEQLESIINFEKL-OH) [Compound 9] | intact bio-activity | intact bio-activity | – | – | –
NH2C(O)NH-Cys(EtOC(O)C15H31)-Ser(OH)—NH(CH2CH2O)3CH2C(O)NH-DEVSGLEQLESIINFEK(^Cy5)L-OH ({Carbamoyl-Cys(EtOC(O)C15H31)}-S[AEEEA]DEVSGLEQLESIINFEK(Cy5)L-OH) [Compound 11, Cy5 fluorophore-labeled conjugate from 28] | intact bio-activity | intact bio-activity | – | – | –
CCCCCCCCCCCCCCCC(=O)OCCSCC[C@H](NC(N)=O)C(=O)N[C@@H](CO)C(=O)OCCOCCOCCOCC(=O)O [Compound 6, (14S,17S)-14-(hydroxymethyl)-13,16,24-trioxo-17-ureido-3,6,9,12,23-pentaoxa-20-thia-15-azanonatriacontanoic acid] | excellent capacity to activate | excellent capacity to activate | improved | – | –
NH2C(O)NH-Cys(EtOC(O)C15H31)-Ser(OH)—O(CH2CH2O)3CH2C(O)NH-DEVSGLEQLESIINFEKL-OH ({Carbamoyl-Cys(EtOC(O)C15H31)-Ser-O(CH2CH2O)3CH2C(O)}-DEVSGLEQLESIINFEKL-OH) [Compound 8] | intact bio-activity | intact bio-activity | – | – | –
NH2C(O)NH-Cys(EtOC(O)C15H31)-Ser(OH)—O(CH2CH2O)3CH2C(O)NH-DEVSGLEQLESIINFEK(^Cy5)L-OH ({Carbamoyl-Cys(EtOC(O)C15H31)-Ser-O(CH2CH2O)3CH2C(O)}-DEVSGLEQLESIINFEK(Cy5)L-OH) [Compound 10, Cy5 fluorophore-labeled conjugate from 27] | intact bio-activity | intact bio-activity | – | efficient engulfment | efficient engulfment
